This is an account of results in US20240408143A1, “METHODS FOR CULTURING MESENCHYMAL STEM CELLS, COMPOSITIONS AND IMPLEMENTATIONS THEREOF” (Pandorum Technologies Private Limited, priority 2021, published 2024).

For test [1], the system named is hBM-MSCs. The experiment in a line: Secretome analysis of primed hBM-MSCs by ELISA. Format: cell-based, human. The settings on record: vs control/untreated. The method, then: hBM-MSCs were cultured in xeno free media along with a replacement of 10% and 20% of CSSC-derived conditioned media (CSSC-CM) to reach a confluence of 80-90%. The media was then subsequently shifted to EV collect for 24-72 hours and primed conditioned media was collected (as described in example 1.1, and 1.2), and exosome isolation was performed by iodixanol density gradient method (as described in example 4.4) and enriched exosomes were obtained. Homogenous fraction F9 was considered for further functional analysis. The secretome analysis was performed using ELISA, detecting the levels of HGF, VEGF, sFLT1, IL-6, NGF.
hBM-MSCs were primed with various priming agents (small molecules) and the secretome was collected (see example 3.2-3.6). The secretome analysis was performed using ELISA, and the levels of HGF, VEGF, NGF, IL-6, sFLT1, SDF1 were detected. FIGS. 6A-6F depict bar graphs of the quantification of the secreted protein levels of HGF, VEGF, NGF, IL-6, sFLT1, and SDF-1 from hBM-MSCs primed with curcumin, 4-OI, DMF, or the combination of curcumin conditioned media and DMF.
In general terms: An ELISA detects its analyte on a solid surface through an enzyme-linked reagent.

Test [2] deals with hBM-MSCs. Kind of test: Yield of exosomes from primed hBM-MSCs. In kind it is cell-based, human. The following applies: priming of hBM-MSCs, compared to untreated (naïve) and other priming agents. As for the experimental part: hBM-MSC was cultured in xeno-free media recommended by the manufacturer, hBM-MSC cells were grown to reach confluency of (80-90) % and treated with a Nrf2 activator (DMF-100 μM) for 24 hours before shifting and maintaining the cells in EV collect media for 24-72 hours (see example 3.3). After 72 hours, condition media was collected, and exosome isolation was performed using iodixanol density gradient protocol (as described in example 4.4).

The test system of test [3] is MSCs. The experiment in a line: MSC viability by MTT assay after ATRA treatment. Format: cell-based. The following applies: 0.1 μM to 500 μM for 24 and 48 hours; all treated MSCs except 0.1 μmol/L. The method, then: (§1) ATRA is found to increase the viability of MSCs. This was ascertained as the MSCs were treated with various concentrations of ATRA (0.1 μM to 500 μM) for 24 and 48 hours and their viability were examined by MTT assay. […] ATRA elevated the PGE2 levels. […] ATRA increased the expression of genes involved in MSC survival, migration and angiogenesis.
For orientation: Tetrazolium assays rely on reduction of a dye to a coloured formazan, in cell work by metabolically active cells.

The subject of test [4] is MSCs. Kind of test: PGE2 levels in MSCs pre-treated with ATRA. In kind it is cell-based. The settings on record: 1, 10, 100 μmol/L, dose-dependent. As for the experimental part: as §1
The subject of test [5] is MSCs. Kind of test: Quantitative real time-PCR of MSCs treated with ATRA. The following applies: 1, 10, 100 μmol/L. In kind it is cell-based. As for the experimental part:
as §1

Test [6] has as its system NASH-induced liver spheroids. Kind of test: Treatment of NASH-induced human liver spheroids, marker staining and albumin ELISA. In kind it is cell-based. The following applies: treatment at D17-D19 after NASH induction, ELISA at 24, 48, 72 hours; HGF 40 ng/ml. The method, then:
The protocol for generating human liver spheroids and inducing a NASH phenotype in the human liver spheroids for the present study was as follows: A mix of primary hepatocytes and liver stellate cells from human donors were co-cultured at a 70:30 ratio (70 hepatocytes to 30 liver stellate cells). The cell mixture was seeded on ultra-low attachment plates and cultured to form viable liver spheroids. […] The NASH induction protocol was as follows: On day 7 post seeding, the spheroids were treated with 600 μM free fatty acid (FFA) mixture consisting of Oleic acid and Palmitic acid at a weight ratio of 2:1 for 6 days with media change every other day. After 6 days of FFA treatment (13 days post seeding), 20 ng/mL of TGF β1 was added to the FFA-containing media for a further two days of combined FFA and TGFβ1 treatment. At day 15 post seeding (after 8 days of FFA treatment and 2 days of combined FFA and TGFβ1 treatment), the media was changed to TGF β1-only treatment, with 20 ng/mL TGF β1 and without the FFA mix. […], at day 19 post seeding, the spheroids and the conditioned media were harvested for characterization. […]
Secreted albumin levels is another marker of liver health. […] The secreted albumin in the culture medium was quantified based on ELISA measurements. […]

The test system of test [7] is NASH-induced liver spheroids. Kind of test: Microarray gene expression profiling of NASH-induced human liver spheroids. Format: cell-based. The text has this: As described herein above and shown in FIGS. 15A-15F, the effect on the liver spheroids of treatment with disease-state induction agents such the FFA mixture or TGFβ1 and/or with therapeutic agents such as the exosomes can be assayed one marker (or a new markers) at a time with techniques such as immune-staining and ELISA. However, a much larger count (dozens, hundreds, thousands) of markers may be assay simultaneously using high-throughput techniques, such as microarray or next generation sequencing (NGS). FIG. 16A depicts a heatmap of changes in gene expression of liver spheroids based on microarray hybridization data. Microarray hybridization data was acquired as follows: After growth of liver spheroid samples and treatment with NASH-induction agents and/or with therapeutic agents as describe above, the liver spheroids were isolated, lysed, and mRNA was isolated, then converted to sequences of complementary DNA (cDNA). The cDNA samples were then applied to an Agilent® microarray and read with a microarray reader. The microarray analysis was performed for a predetermined transcriptome set of 22,473 genes (included in the microarray) using standard methods to obtain normalized expression values. […]
The gene expression levels of the liver spheroids in each of the different liver spheroid states were also represented and stored, respectively, as feature vectors (“spheroid state feature vectors”), with each element of a given spheroid state feature vector being a level of expression of one of the genes assayed in the microarray. The similarity (or lack of similarity) of the gene expression profile between different states was determined based on a measure of distance between pairs of feature vectors in an n-dimensional space, n being the number of genes represented in each of the feature vectors. […]

Where a name gives a salt, the structure may show the parent alone.

`C=C(CC(=O)OCCCCCCCC)C(=O)O` [4-OI, 4 Octyl itaconate]: in the test on hBM-MSCs [1], the “secreted HGF level” value is recorded as “significant increase”, the “secreted IL-6 level” value was “attenuated” and the “secreted NGF level” value is listed as “enhanced”. Also, the yield of exosomes entry with hBM-MSCs [2] was “higher yield”.
On to `CC1=C(/C=C/C(C)=C/C=C/C(C)=C/C(=O)O)C(C)(C)CCC1` [ATRA, all-trans retinoic acid], for which the MSC viability result in the test with MSCs [3] is listed as “significantly higher”. The PGE2 levels entry in the test with MSCs [4] is listed as “significantly increased”. In addition, the “mRNA levels of COX-2, HIF-1, CXCR4, CCR2, VEGF, Ang-2 and Ang-4” value with MSCs [5] is “elevated in a dose dependent manner”.
As to `COC(=O)/C=C/C(=O)OC` [DMF, Dimethyl fumarate], in the test on hBM-MSCs [1], the “secreted HGF level” value is on record as “significant increase”, the “secreted IL-6 level” value is recorded as “attenuated”, the “secreted NGF level” value was “increase” and the “secreted SDF-1 level” value is given as “increase”. Also, in the test on hBM-MSCs [1], the “secreted sFLT1 level” value was “increase”. Further, in the test with hBM-MSCs [2], the yield of exosomes result is on record as “higher yield”.
Take `COc1cc(/C=C/C(=O)CC(=O)/C=C/c2ccc(O)c(OC)c2)ccc1O` [curcumin, Curcumin]: in the test with hBM-MSCs [1], the “secreted IL-6 level” value was “attenuated”.
Turning to “HGF: 40 ng/ml hepatic growth factor used as comparison treatment of NASH-induced liver spheroids”, the albumin secretion result in test [6] was “did not result in increased”. Also, in test [7] (FIGS. 18A-18C gene sets), the “recovery based on gene expression patterns, Jaccard Similarity Index coordinates” value is “substantially more similar to the diseased state”. In addition, the “gene expression profile of 287 liver specific genes, cluster analysis” value in test [7] (treatment after NASH induction) is on record as “most closely resembled the gene expression profile of the Diseased liver spheroid state”. Besides, the “gene expression profile, principal component analysis” value in test [7] (treatment at D17-D19 after NASH induction, HGF 40 ng/ml) is reported as “substantially unchanged”.
